The text below walks through data of patent US20230031406A1, “COMPOUNDS AND COMPOSITIONS FOR TREATING CONDITIONS ASSOCIATED WITH NLRP ACTIVITY” (Novartis AG, priority 2018, published 2023).

In this experiment the test system is PMA-differentiated THP-1 cells. The experiment is described as follows: IL-1β production in PMA-differentiated THP-1 cells stimulated with gramicidin (hTHP-1 assay containing 2% fetal bovine serum; Procedures 1 and 2). It counts as cell-based, human. As to conditions: 2% fetal bovine serum. In short, it runs like this:
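Human monocytic THP-1 cells, matured overnight with PMA at 20 ng/ml, are seeded in low-serum (2% FBS) RPMI. Test compounds, at final concentrations from 100 down to 0.0017 μM, precede gramicidin (5 μM, 2 h) by one hour. Released IL-1β is then determined by HTRF.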

Setting [1] is: Homo sapiens, THP-1, Table B1, numeric bounds, read-out: Average IC50 of compounds in hTHP-1 assay: hTHP-1 IC50.
The mark [2] stands for this setting: Homo sapiens, THP-1, Table B2, numeric bounds, read-out: hTHP-1 IC50.
The mark [3] stands for this setting: Homo sapiens, THP-1, Table B2, class symbols, read-out: hTHP-1 IC50.
The mark [4] stands for this setting: Homo sapiens, THP-1, Table B1, class symbols, read-out: Average IC50 of compounds in hTHP-1 assay: hTHP-1 IC50.
The mark [5] stands for this setting: Homo sapiens, THP-1, Table B3, hTHP-1 assay, class symbols, read-out: IC50.
Where [6] appears, read: Table B1, class symbols, read-out: Average IC50 of compounds in hTHP-1 assay: hTHP-1 IC50.

Structures are written as SMILES. Like-named read-outs stand apart in the source and are kept apart here.

The IC50 is the concentration needed to halve the response being measured. `Cc1cc(C2CC2)nc(NC(=O)N=S(N)(=O)c2ncc(C(C)(C)O)s2)n1` (single isomer, unassigned) [Compound 185b, (S) or (R)-N′-((4-cyclopropyl-6-methylpyrimidin-2-yl)carbamoyl)-5-(2-hydroxypropan-2-yl)thiazole-2-sulfonimidamide]: the IC50 by setting is: under setting [1], more than 30000 nM; under setting [2], more than 30000 nM. Take `CC(C)(O)c1ccc(S(N)(=O)=NC(=O)Nc2c3c(nc4c2CCC4)CCC3)cc1` (single isomer, unassigned) [Compound 633b, (R) or (S)-N′-((1,2,3,5,6,7-hexahydrodicyclopenta [b,e]pyridin-8-yl)carbamoyl)-4-(2-hydroxypropan-2-yl)benzene-sulfonimidamide]: the IC50 under setting [3] lay in the range of 5000 to 30000 nM. Regarding `Cc1c(C2CC2)nc2c(c1NC(=O)N=S(N)(=O)c1cnc(C(C)(C)O)s1)CCC2` (stereo not drawn) [Compound 124, N′-((2-cyclopropyl-3-methyl-6,7-dihydro-5H-cyclopenta[b]pyridin-4-yl)carbamoyl)-2-(2-hydroxypropan-2-yl)thiazole-5-sulfonimidamide], the IC50 under setting [4] is 200 to 1000 nM. For the molecule `Cc1nc2c(c(NC(=O)N=S(N)(=O)c3nn(C(F)F)cc3F)c1-c1ccccc1)CCC2` (stereo not drawn) [Example 620, 1-(Difluoromethyl)-4-fluoro-N′-((2-methyl-3-phenyl-6,7-dihydro-5H-cyclopenta[b]pyridin-4-yl)carbamoyl)-1H-pyrazole-3-sulfonimidamide], the IC50 under setting [5] was in the range of 200 to 1000 nM. For the molecule `Cc1nc2c(c(NC(=O)N=S(N)(=O)c3nn(C(F)F)cc3F)c1-c1ccccc1)CCC2` (single isomer, unassigned) [Example 727, (R) or (S)-1-(difluoromethyl)-4-fluoro-N′-((2-methyl-3-phenyl-6,7-dihydro-5H-cyclopenta[b]pyridin-4-yl)carbamoyl)-1H-pyrazole-3-sulfonimidamide], the IC50 (Table B3, hTHP-1 assay, class symbols, read-out: IC50) was 40 to 200 nM. With `Cc1c(C2CC2)nc2c(c1NC(=O)N=S(N)(=O)c1ccn(C(F)F)n1)CCC2` (stereo not drawn) [Compound 676, N′-((2-cyclopropyl-3-methyl-6,7-dihydro-5H-cyclopenta[b]pyridin-4-yl)carbamoyl)-1-(difluoromethyl)-1H-pyrazole-3-sulfonimidamide], the IC50 under setting [3] is 1000 to 5000 nM. `CC1(C)CCc2c1nc1c(c2NC(=O)N=S(N)(=O)c2sc(C(C)(O)CO)nc2CO)CCC1` (stereo not drawn) [Example 598, 2-(1,2-Dihydroxypropan-2-yl)-N′-((3,3-dimethyl-1,2,3,5,6,7-hexahydrodicyclopenta[b,e]pyridin-8-yl)carbamoyl)-4-(hydroxymethyl)thiazole-5-sulfonimidamide]: the 50% inhibitory concentration (IC50) under setting [5] lay in the range of 200 to 1000 nM. Turning to `C[C@@H]1CCc2c1nc1c(c2NC(=O)N=[S@](N)(=O)c2cc([C@@H](C)O)cs2)CCC1` (single isomer, unassigned) [Example 661, (S)-4-((R) or (S)-1-hydroxyethyl)-N′-(((R)-3-methyl-1,2,3,5,6,7-hexahydrodicyclopenta[b,e]pyridin-8-yl)carbamoyl) thiophene-2-sulfonimidamide], under setting [5], the IC50 was in the range of 1000 to 5000 nM. Turning to `CCc1ncc(S(N)(=O)=NC(=O)Nc2c3c(nc4c2CC[C@H]4C)CCC3)s1` (stereo partly drawn) [Example 629, 2-Ethyl-N′-(((R)-3-methyl-1,2,3,5,6,7-hexahydrodicyclopenta[b,e]pyridin-8-yl)carbamoyl)thiazole-5-sulfonimidamide], the IC50 under setting [5] is 200 to 1000 nM. For `CC(C)c1ncc(F)c(C(C)C)c1NC(=O)N=S(N)(=O)c1ncc(C(C)(C)O)s1` [Compound 165a, (R)- and (S)-N′-((5-fluoro-2,4-diisopropylpyridin-3-yl)carbamoyl)-5-(2-hydroxypropan-2-yl)thiazole-2-sulfonimidamide], the IC50 under setting [6] was in the range of 200 to 1000 nM. As for `C[C@@H]1CCc2c1nc1c(c2NC(=O)N=S(N)(=O)c2nn(-c3ccccc3)cc2F)CCC1` (single isomer, unassigned) [Example 792, (S) or (R)-4-fluoro-N′-(((R)-3-methyl-1,2,3,5,6,7-hexahydrodicyclopenta[b,e]pyridm-8-yl)carbamoyl)-1-phenyl-1H-pyrazole-3-sulfonimidamide], the IC50 (Homo sapiens, THP-1, Table B4, numeric bounds, read-out: hTHP-1 IC50) is more than 30000 nM.

With `Cc1c(C(F)(F)F)nc2c(c1NC(=O)N=S(N)(=O)c1ccn(C)n1)CCC2` (stereo not drawn) [Compound 730], under setting [3], the IC50 lay within 5000 to 30000 nM. With `C[C@](O)(CO)c1cc(F)c([S@](N)(=O)=NC(=O)Nc2c3c(nc4c2CCC42CC2)CCC3)s1` [Example 678, (R)-5-((S)-1,2-dihydroxypropan-2-yl)-3-fluoro-N′-((1′,5′,6′,7′-tetrahydro-2′H-spiro[cyclopropane-1,3′-dicyclopenta[b,e]pyridin]-8′-yl)carbamoyl)thiophene-2-sulfonimidamide], the IC50 under setting [5] is 8 to 40 nM.

Turning to `CC1CCc2c1nc1c(c2NC(=O)N=S(N)(=O)c2cnc(C(C)(C)O)s2)CCC1` (single isomer, unassigned) [Compound 162aa, (S,S) or (S,R)-2-(2-hydroxypropan-2-yl)-N′-((3-methyl-1,2,3,5,6,7-hexahydrodicyclo-penta[b,e]pyridin-8-yl)carbamoyl)thiazole-5-sulfonimidamide], under setting [6], the IC50 was in the range of 5000 to 30000 nM.

Regarding `Cc1cc(C2CC2)nc(NC(=O)N=S(N)(=O)c2ncc(C(C)(C)O)s2)n1` (stereo not drawn) [Compound 185, N′-((4-cyclopropyl-6-methylpyrimidin-2-yl)carbamoyl)-5-(2-hydroxypropan-2-yl)thiazole-2-sulfonimidamide], the IC50 is, setting by setting: under setting [1], more than 30000 nM; under setting [2], more than 30000 nM. In the case of `CC(C)c1csc(S(N)(=O)=NC(=O)Nc2c3c(nc4c2CCC4)CCC3)c1` (single isomer, unassigned) [Compound 173a, (R) or (S)-N′-((1,2,3,5,6,7-hexahydrodicyclo-penta[b,e]pyridin-8-yl)carbamoyl)-4-isopropylthiophene-2-sulfonimidamide], the IC50 under setting [4] was in the range of 200 to 1000 nM. As to `CCn1cc(F)c(S(N)(=O)=NC(=O)Nc2c3c(nc4c2CCC42CC2)CCC3)n1` (stereo not drawn) [Example 628, 1-Ethyl-4-fluoro-N′-((1′,5′,6′,7′-tetrahydro-2′H-spiro[cyclopropane-1,3′-dicyclopenta[b,e]pyridin]-8′-yl)carbamoyl)-1H-pyrazole-3-sulfonimidamide], under setting [5], the IC50 was 40 to 200 nM. For `Cc1c(C(F)(F)F)nc2c(c1NC(=O)N=S(N)(=O)c1cnc(C(C)(O)CO)s1)CCC2` (single isomer, unassigned) [Compound 605e, (R, S) or (S, S)-2-(1,2-Dihydroxypropan-2-yl)-N′-((3-methyl-2-(trifluoromethyl)-6,7-dihydro-5H-cyclopenta[b]pyridin-4-yl)carbamoyl) thiazole-5-sulfonimidamide], the half-maximal inhibitory concentration (IC50) (Table B2, class symbols, read-out: hTHP-1 IC50) lay in the range of 5000 to 30000 nM. `CCC1CCc2c1nc1c(c2NC(=O)N=S(N)(=O)c2cnc(C(C)(C)O)s2)CCC1` (single isomer, unassigned) [Compound 662a, (S, S) or (S, R) or (R, S) or (R, R)-N′-((3-Ethyl-1,2,3,5,6,7-hexaliydrodicyclopenta [b,e]pyridin-8-yl)caibamoyl)-2-(2-hydroxypropan-2-yl)thiazole-5-sulfonimidamide]: the IC50 (Table B2, numeric bounds, read-out: hTHP-1 IC50) was more than 30000 nM. `CCc1c(C2CC2)nc2c(c1NC(=O)N=S(N)(=O)c1cc(C(C)(C)O)cs1)CCC2` (stereo not drawn) [Compound 181, N′-((2-cyclopropyl-3-ethyl-6,7-dihydro-5H-cyclopenta[b]pyridin-4-yl)carbamoyl)-4-(2-hydroxypropan-2-yl)thiophene-2-sulfonimidamide]: the IC50 under setting [4] lay in the range of 200 to 1000 nM. With `CC1(C)CCc2c1nc1c(c2NC(=O)NS(=N)(=O)c2cnc([C@@](C)(O)COCCOCCOCCOCCO)s2)CCC1` (stereo partly drawn) [Example 584, 2-((S)-1,14-dihydroxy-3,6,9,12-tetraoxapentadecan-14-yl)-N-((3,3-dimethyl-1,2,3,5,6,7-hexahydrodicyclopenta[b,e]pyridin-8-yl)carbamoyl)thiazole-5-sulfonimidamide], the IC50 (Homo sapiens, THP-1, Table B3, hTHP-1 assay, numeric values, read-out: IC50) is more than 30000 nM. Consider `CC1CCc2c1nc1c(c2NC(=O)N=S(N)(=O)c2ncc(C(C)(C)O)s2)CCC1` (single isomer, unassigned) [Compound 140a, (R,R/S) or (S,R/S)-5-(2-hydroxypropan-2-yl)-N′-((3-methyl-1,2,3,5,6,7-hexa-hydrodicyclo-penta[b,e]pyridin-8-yl)carbamoyl)thiazole-2-sulfonimidamide], for which the IC50 under setting [6] was in the range of 40 to 200 nM. With `CC(C)(O)c1cnc(S(N)(=O)=NC(=O)Nc2c3c(nc4c2CCC42CC2)CCC3)s1` (stereo not drawn) [Compound 683, 5-(2-Hydroxypropan-2-yl)-N′-((1′,5′,6′,7′-tetrahydro-2′H-spiro[cyclopropane-1,3′-dicyclopenta[b,e]pyridin]-8′-yl)carbamoyl)thiazole-2-sulfonimidamide], the IC50 under setting [3] lay within 1000 to 5000 nM. `Cc1c(C(F)(F)F)nc2c(c1NC(=O)N=[S@](N)(=O)c1cnc(C(C)(C)O)s1)CC[C@@H]2C` [Compound 608a]: the IC50 under setting [3] fell in the range of 200 to 1000 nM. Regarding `CC(C)(O)c1ncc(S(N)(=O)=NC(=O)Nc2c3c(nc4c2CCC4(C)C)CCC3)s1` (single isomer, unassigned) [Compound 153a, (S) or (R)-N′-((3,3-dimethyl-1,2,3,5,6,7-hexahydro-dicyclopenta[b,e]pyridin-8-yl)carbamoyl)-2-(2-hydroxypropan-2-yl)thiazole-5-sulfonimidamide], under setting [6], the IC50 lay in the range of 5000 to 30000 nM.
